Experimental data published in patent US20040152674A1, “Pharmaceutically active compounds and methods of use thereof” (Trustees of Tufts College, priority 1998, published 2004).
≈ marks a conversion by molar mass, not a printed value.

Columns and labels:
S. aureus RN4250 = test: MIC by broth dilution method (Table 4); assay type: cell-based; set-up: unit not given here; conditions: S. aureus RN4250 Tc^r; 18 hours
Method: (§1) The minimum inhibitory concentration, the lowest concentration of drug that inhibits bacterial growth at 18 hours at their appropriate temperature, is determined by the broth dilution method using L-broth or Muller-Hinton broth. The Muller-Hinton broth was cation-adjusted accordingly and all bacteriological methods were performed as was described by Waitz, J. A., National Commision for Clinical Laboratory Standards Document M7-A2, vol.10, no. 8, pp.13-20, 2nd edition, Villanova, Pa. (1990). The organisms tested represent gram-positive and gram-negative bacterial species that are susceptible to tetracyclines or are resistant to tetracyclines due to the ability to efflux tetracyclines or which confer resistance by ribosomal protection mechanisms. The clinical strains used are either susceptible to tetracyclines or are resistant to them by either drug efflux or ribosomal protection.

E. faecalis ATCC9790 [1] = test: MIC by broth dilution method (Table 4); assay type: cell-based; set-up: unit not given here; conditions: E. faecalis Tc^r ATCC9790; 18 hours
Method: as §1

E. coli D31m4 [2] = test: MIC by broth dilution method (Table 4); assay type: cell-based; set-up: unit not given here; conditions: E. coli D31m4* Tc^r, lipopolysaccharide-deficient mutant; 18 hours
Method: as §1

S. aureus ATCC12715 = test: MIC by broth dilution method (Table 4); assay type: cell-based; set-up: unit not given here; conditions: S. aureus Tc^r ATCC12715; 18 hours
Method: as §1

E. faecalis pMV158 = test: MIC by broth dilution method (Table 4); assay type: cell-based; set-up: unit not given here; conditions: E. faecalis pMV158 Tc^r; 18 hours
Method: as §1

E. coli D31m4(pHCM1) = test: MIC by broth dilution method (Table 4); assay type: cell-based; set-up: unit not given here; conditions: E. coli D31m4(pHCM1) Tcr; 18 hours
Method: as §1

S. aureus RN450 [3] = test: MIC by broth dilution method (Table 4); assay type: cell-based; set-up: unit not given here; conditions: S. aureus RN450 Tc^s; 18 hours
Method: as §1

S. aureus MRSA5 = test: MIC by broth dilution method (Table 4); assay type: cell-based; set-up: unit not given here; conditions: S. aureus MRSA5 Tc^r; 18 hours
Method: as §1

E. faecalis pAM211 = test: MIC by broth dilution method (Table 4); assay type: cell-based; set-up: unit not given here; conditions: E. faecalis pAM211 Tc^r; 18 hours
Method: as §1

S. aureus 12715 (K) = test: MIC in L broth tubes (Example 10); assay type: cell-based; conditions: Staphylococcus aureus, tetracycline resistant, 17-18 hours, 37° C., read-out: Minimum Inhibitory Concentration
Method: (§2) The inhibitory effects of compounds of the invention were examined relative to doxycycline using tetracycline-sensitive and tetracycline-resistant strains of E. coli, S. aureus, and E. faecalis as specified in the Tables below. The general protocol for performing these experiments was as follows: cultures were grown up fresh in L broth in the morning from an overnight culture. After 4-6 hours of growth, each bacterial culture was diluted to an A530 of 0.2-0.5 depending on the strain (E. coli, 0.5; S. aureus, 0.4; E. faecalis, 0.2). Individual tubes, containing 1 ml of L broth and different concentrations of the tested compound, were inoculated with the different bacterial cultures and then incubated at 37° C. After 17-18 hours of incubation, the concentration of the tested compound at which no observed cloudiness was seen was called the minimal inhibitory concentration (MIC). The results obtained are set forth in Tables 2 and 3 below, with the MIC values expressed in μg/ml and set forth in columns beneath the tested compound.

E. coli D31m4(pHCM1) (B) = test: MIC in L broth tubes (Example 10); assay type: cell-based; conditions: Escherichia coli, read-out: Minimum Inhibitory Concentration
Method: as §2

E. faecalis ATCC9790 [4] = test: MIC in L broth tubes (Example 10); assay type: cell-based; conditions: Enterococcus faecalis; E. faecalis ATCC9790, tetracycline sensitive; 17-18 hours, 37° C.; read-out: Minimum Inhibitory Concentration
Method: as §2

VRE 19 = test: MIC in L broth tubes (Example 10); assay type: cell-based; conditions: Enterococcus; VRE 19, tetracycline sensitive; read-out: Minimum Inhibitory Concentration
Method: as §2

VRE 15 = test: MIC in L broth tubes (Example 10); assay type: cell-based; conditions: Enterococcus, read-out: Minimum Inhibitory Concentration
Method: as §2

E. coli D31m4 [5] = test: MIC in L broth tubes (Example 10); assay type: cell-based; conditions: Escherichia coli, D31M4, read-out: Minimum Inhibitory Concentration
Method: as §2

VRE 11 = test: MIC in L broth tubes (Example 10); assay type: cell-based; conditions: Enterococcus, read-out: Minimum Inhibitory Concentration
Method: as §2

VRE 17 = test: MIC in L broth tubes (Example 10); assay type: cell-based; conditions: Enterococcus; VRE 17, tetracycline sensitive; read-out: Minimum Inhibitory Concentration
Method: as §2

S. aureus RN450 [6] = test: MIC in L broth tubes (Example 10); assay type: cell-based; conditions: Staphylococcus aureus; S. aureus RN450, tetracycline sensitive; 17-18 hours, 37° C.; read-out: Minimum Inhibitory Concentration
Method: as §2

S. aureus RN4250 (K) = test: MIC in L broth tubes (Example 10); assay type: cell-based; conditions: Staphylococcus aureus, read-out: Minimum Inhibitory Concentration
Method: as §2

E. faecalis pAM211 (L) = test: MIC in L broth tubes (Example 10); assay type: cell-based; conditions: Enterococcus faecalis, read-out: Minimum Inhibitory Concentration
Method: as §2

E. faecalid pMV158 (L) = test: MIC in L broth tubes (Example 10); assay type: cell-based, E. faecalis; conditions: Enterococcus faecalis, read-out: Minimum Inhibitory Concentration
Method: as §2

MRSA 3 = test: MIC in L broth tubes (Example 10); assay type: cell-based, S. aureus; conditions: Staphylococcus aureus, read-out: Minimum Inhibitory Concentration
Method: as §2

MRSA 1 = test: MIC in L broth tubes (Example 10); assay type: cell-based, S. aureus
Method: as §2

| SMILES | Antibacterial activity (minimum inhibitory concentration) (S. aureus RN4250) | Antibacterial activity (minimum inhibitory concentration) (E. faecalis ATCC9790 [1]) | Antibacterial activity (minimum inhibitory concentration) (E. coli D31m4 [2]) | Antibacterial activity (minimum inhibitory concentration) (S. aureus ATCC12715) | Antibacterial activity (minimum inhibitory concentration) (E. faecalis pMV158) | Antibacterial activity (minimum inhibitory concentration) (E. coli D31m4(pHCM1)) | Antibacterial activity (minimum inhibitory concentration) (S. aureus RN450 [3]) | Antibacterial activity (minimum inhibitory concentration) (S. aureus MRSA5) | Antibacterial activity (minimum inhibitory concentration) (E. faecalis pAM211) | other results |
| --- | --- | --- | --- | --- | --- | --- | --- | --- | --- | --- |
| C[C@H]1c2cccc(O)c2C(=O)C2=C(O)[C@]3(O)C(=O)C(C(N)=O)=C(O)[C@@H](N(C)C)C3[C@@H](O)C21 (stereo partly drawn) [Doxycycline, [4S-(4alpha,12aalpha)]-4-(dimethylamino)-1,4,4a,5,5a,6,11,12a-octahydro-3,5,10,12,12a-pentahydroxy-6-methyl-1,11-dioxo-2-naphthacenecarboxamide, reference compound] | 25 | 0.39 | 0.78 | 50 | 6.25 | 12.5 | 0.195 | 6.25 | 12.5 | MIC (S. aureus 12715 (K)): 25 µg/mL (≈ 56.3 µM); MIC (E. coli D31m4(pHCM1) (B)): 12.5 µg/mL (≈ 28.1 µM); MIC (E. faecalis ATCC9790 [4]): < 0.78 µg/mL; MIC (VRE 19): ≤ 1.56 µg/mL; MIC (VRE 15): 12.5 µg/mL (≈ 28.1 µM); MIC (E. coli D31m4 [5]): < 0.78 µg/mL; MIC (VRE 11): 12.5 µg/mL (≈ 28.1 µM); MIC (VRE 17): ≤ 1.56 µg/mL; MIC (S. aureus RN450 [6]): < 0.78 µg/mL; MIC (S. aureus RN4250 (K)): 12.5 µg/mL (≈ 28.1 µM); MIC (E. faecalis pAM211 (L)): 12.5 µg/mL (≈ 28.1 µM); MIC (E. faecalid pMV158 (L)): 12.5 µg/mL (≈ 28.1 µM); MIC (MRSA 3): 6.25 µg/mL (≈ 14.1 µM); Minimum Inhibitory Concentration (MRSA 1; MRSA 1, listed under Tetracycline Sensitive Bacteria): 6.25 µg/mL; MIC (MRSA 1; Staphylococcus aureus, MRSA, read-out: Minimum Inhibitory Concentration): 6.25 µg/mL (≈ 14.1 µM) |
| CC1c2ccc(C(C)(C)CCCN3CCCC3)c(O)c2C(=O)C2=C(O)[C@]3(O)C(=O)C(C(N)=O)=C(O)[C@@H](N(C)C)C3C(O)C21 (stereo partly drawn) [K, [4S-(4alpha,12a-alpha)]-9-[4′-(1′-pyrrolidinyl-4′-methyl)pentyl]-4-(dimethylamino)-1,4,4a,5,5a,6,11,12a-octahydro-3,5,10,12,12a-pentahydroxy-6-methyl-1,11-dioxo-2-naphthacenecarboxamide] | 50 | 25 | 50 | 50 | 25 | 50 | 25 | 6.25 | 25 |  |
